According to US10167262B2, “Herbicidal substituted 3-arylpyrazoles” (FMC CORPORATION, priority 2014, dated 2019):

How the values were obtained:
Format in all cases: in vivo
[1] = tested on: barnyardgrass (Echinochloa crus-galli); test: Test A pre-/postemergence greenhouse herbicide test, visual injury rating 0-100
Method in brief: (§1)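 Formulated in non-phytotoxic solvent with surfactant, compounds were applied pre- and postemergence simultaneously. Soil: loam–sand blend. Visual injury, 0 = no effect to 100 = complete control, ~10 days.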

[2] = tested on: corn (Zea mays); test: as above
Method in brief: as §1

[3] = tested on: giant foxtail (Setaria faberii); test: as above
Method in brief: as §1

[4] = tested on: large (Lg) crabgrass (Digitaria sanguinalis); test: as above
Method in brief: as §1

[5] = tested on: morningglory (Ipomoea spp.); test: as above
Method in brief: as §1

[6] = tested on: pigweed (Amaranthus retroflexus); test: as above
Method in brief: as §1

[7] = tested on: velvetleaf (Abutilon theophrasti); test: as above
Method in brief: as §1

[8] = tested on: wheat (Triticum aestivum); test: as above
Method in brief: as §1

[9] = tested on: barnyardgrass (Echinochloa crus-galli); test: Test B flooded paddy test, plant response rating 0-100; details: Flood, 250 g ai/ha; scale 0 to 100 (0 no effect, 100 complete control); 13 to 15 days
From the text: (§2) At time of treatment, test pots were flooded to 3 cm above the soil surface, treated by application of test compounds directly to the paddy water, and then maintained at that water depth for the duration of the test. Treated plants and controls were maintained in a greenhouse for 13 to 15 days, after which time all species were compared to controls and visually evaluated. […] A dash (-) response means no test result.

[10] = tested on: ducksalad (Heteranthera limosa); test: as above; details: Flood, 250 g ai/ha; scale 0 to 100 (0 no effect, 100 complete control); 13 to 15 days
From the text: as §2

[11] = tested on: rice (Oryza sativa); test: as above; details: Flood, 250 g ai/ha; scale 0 to 100 (0 no effect, 100 complete control); 13 to 15 days
From the text: as §2

[12] = tested on: sedge, umbrella (small-flower umbrella sedge, Cyperus difformis); test: as above; details: Flood, 250 g ai/ha; scale 0 to 100 (0 no effect, 100 complete control); 13 to 15 days
From the text: as §2

Row | Structure (SMILES) | Plant response rating (0 to 100 scale), Barnyardgrass ([1]; Postemergence, 125 g ai/ha) | Plant response rating (0 to 100 scale), Barnyardgrass ([1]; Postemergence, 500 g ai/ha) | Barnyardgrass plant response rating (0 = no effect, 100 = complete control) ([1]; Preemergence, 125 g ai/ha) | Plant response rating (0 to 100 scale), Barnyardgrass ([1]; Preemergence, 500 g ai/ha) | Corn plant response rating (0 = no effect, 100 = complete control) ([2]; Preemergence, 125 g ai/ha) | Plant response rating (0 to 100 scale), Corn ([2]; Preemergence, 500 g ai/ha) | Plant response rating (0 to 100 scale), Foxtail, Giant ([3]; Postemergence, 125 g ai/ha) | Plant response rating (0 to 100 scale), Foxtail, Giant ([3]; Postemergence, 500 g ai/ha) | Foxtail, Giant plant response rating (0 = no effect, 100 = complete control) ([3]; Preemergence, 125 g ai/ha) | Plant response rating (0 to 100 scale), Foxtail, Giant ([3]; Preemergence, 500 g ai/ha) | Plant response rating (0 to 100 scale), Crabgrass, Large ([4]; Postemergence, 125 g ai/ha) | Plant response rating (0 to 100 scale), Crabgrass, Large ([4]; Postemergence, 500 g ai/ha) | Crabgrass, Large plant response rating (0 = no effect, 100 = complete control) ([4]; Preemergence, 125 g ai/ha) | Plant response rating (0 to 100 scale), Crabgrass, Large ([4]; Preemergence, 500 g ai/ha) | Plant response rating (0 to 100 scale), Morningglory ([5]; Postemergence, 125 g ai/ha) | Plant response rating (0 to 100 scale), Morningglory ([5]; Postemergence, 500 g ai/ha) | Morningglory plant response rating (0 = no effect, 100 = complete control) ([5]; Preemergence, 125 g ai/ha) | Plant response rating (0 to 100 scale), Morningglory ([5]; Preemergence, 500 g ai/ha) | Plant response rating (0 to 100 scale), Pigweed ([6]; Postemergence, 125 g ai/ha) | Plant response rating (0 to 100 scale), Pigweed ([6]; Postemergence, 500 g ai/ha) | other results
1 | ON=C(c1cccnc1)c1c[nH]nc1-c1cc(Cl)cc(Cl)c1 [Compound 5] | 0 | 0 | 0 | 0 | 0 | 0 | 0 | 0 | 0 | 0 | 0 | 0 | 0 | 0 | 0 | 0 | 0 | 0 | 0 | 0 | Pigweed plant response rating (0 = no effect, 100 = complete control) ([6]; Preemergence, 125 g ai/ha): 0; Plant response rating (0 to 100 scale), Pigweed ([6]; Preemergence, 500 g ai/ha): 20; Plant response rating (0 to 100 scale), Velvetleaf ([7]; Postemergence, 125 g ai/ha): 0; Plant response rating (0 to 100 scale), Velvetleaf ([7]; Postemergence, 500 g ai/ha): 0; Velvetleaf plant response rating (0 = no effect, 100 = complete control) ([7]; Preemergence, 125 g ai/ha): 0; Plant response rating (0 to 100 scale), Velvetleaf ([7]; Preemergence, 500 g ai/ha): 0; Plant response rating (0 to 100 scale), Wheat ([8]; Postemergence, 125 g ai/ha): 0; Plant response rating (0 to 100 scale), Wheat ([8]; Postemergence, 500 g ai/ha): 0; Wheat plant response rating (0 = no effect, 100 = complete control) ([8]; Preemergence, 125 g ai/ha): 0; Plant response rating (0 to 100 scale), Wheat ([8]; Preemergence, 500 g ai/ha): 0; Plant response rating, Barnyardgrass [9]: 0; Plant response rating, Ducksalad [10]: 0; Plant response rating, Rice [11]: 0; Plant response rating, Sedge, Umbrella [12]: 0
2 | O=C(c1ccccc1)c1cn(CC2CC2)nc1-c1cc(Cl)cc(Cl)c1 [Compound 41] | 0 | 0 | 0 | 0 | 0 | 0 | 0 | 0 | 0 | 0 | 0 | 0 | 0 | 0 | 0 | 0 | 0 | 0 | 30 | 60 | Plant response rating (0 to 100 scale), Corn ([2]; Postemergence, 125 g ai/ha): 0; Plant response rating (0 to 100 scale), Corn ([2]; Postemergence, 500 g ai/ha): 0; Pigweed plant response rating (0 = no effect, 100 = complete control) ([6]; Preemergence, 125 g ai/ha): 0; Plant response rating (0 to 100 scale), Pigweed ([6]; Preemergence, 500 g ai/ha): 60; Plant response rating (0 to 100 scale), Velvetleaf ([7]; Postemergence, 125 g ai/ha): 40; Plant response rating (0 to 100 scale), Velvetleaf ([7]; Postemergence, 500 g ai/ha): 80; Velvetleaf plant response rating (0 = no effect, 100 = complete control) ([7]; Preemergence, 125 g ai/ha): 0; Plant response rating (0 to 100 scale), Velvetleaf ([7]; Preemergence, 500 g ai/ha): 60; Plant response rating (0 to 100 scale), Wheat ([8]; Postemergence, 125 g ai/ha): 0; Plant response rating (0 to 100 scale), Wheat ([8]; Postemergence, 500 g ai/ha): 0; Wheat plant response rating (0 = no effect, 100 = complete control) ([8]; Preemergence, 125 g ai/ha): 0; Plant response rating (0 to 100 scale), Wheat ([8]; Preemergence, 500 g ai/ha): 0; Plant response rating, Barnyardgrass [9]: 0; Plant response rating, Ducksalad [10]: 0; Plant response rating, Rice [11]: 0; Plant response rating, Sedge, Umbrella [12]: 30
3 | C#CCn1cc(C(=O)c2cccnc2)c(-c2cc(Cl)cc(Cl)c2)n1 [Compound 9] | 0 | 10 | 0 | 0 | 0 | 0 | 0 | 0 | 0 | 20 | 0 | 0 | 0 | 10 | 0 | 0 | 0 | 0 | 60 | 80 | Pigweed plant response rating (0 = no effect, 100 = complete control) ([6]; Preemergence, 125 g ai/ha): 60; Plant response rating (0 to 100 scale), Pigweed ([6]; Preemergence, 500 g ai/ha): 90; Plant response rating (0 to 100 scale), Velvetleaf ([7]; Postemergence, 125 g ai/ha): 50; Plant response rating (0 to 100 scale), Velvetleaf ([7]; Postemergence, 500 g ai/ha): 60; Velvetleaf plant response rating (0 = no effect, 100 = complete control) ([7]; Preemergence, 125 g ai/ha): 0; Plant response rating (0 to 100 scale), Velvetleaf ([7]; Preemergence, 500 g ai/ha): 80; Plant response rating (0 to 100 scale), Wheat ([8]; Postemergence, 125 g ai/ha): 0; Plant response rating (0 to 100 scale), Wheat ([8]; Postemergence, 500 g ai/ha): 0; Wheat plant response rating (0 = no effect, 100 = complete control) ([8]; Preemergence, 125 g ai/ha): 0; Plant response rating (0 to 100 scale), Wheat ([8]; Preemergence, 500 g ai/ha): 0; Plant response rating, Barnyardgrass [9]: 0; Plant response rating, Ducksalad [10]: 0; Plant response rating, Rice [11]: 0; Plant response rating, Sedge, Umbrella [12]: 0
